From patent publication US20080098491A1, “MOUSE MODELS TO STUDY CACHEXIA” (ZOLTAN LABORATORIES LLC, priority 2006, published 2008)

Legend:
[1] = tested on: MXT mouse mammary tumor; test: Cisplatin-treated MXT mouse mammary tumor model, PALP and TF (Example 9, Experiment 1); format: in vivo; conditions: for Body weight (total weight minus tumor weight) / Total weight / Tumor weight: every second day from day 7 (7-times): cisplatin 3-mg/kg i.p., purified PALP 16, commercial PALP 60, TF 14 mg/kg s.c.
Source text: (§1) The B16 mouse melanoma and MXT mouse mammary tumors were developed in first generation hybrid BDF1 (C57 B1 female×DBA/2 male) adult female mice kept at specified pathogen free (SPF) hygienic level. These models were chosen for these experiments because these mice have the complete immune system, and both tumors grow very rapidly. To develop the tumors, B16 and MXT tumor tissue fragments of about 0.1-cm^3 were surgically implanted subcutaneously into the intrascapular region to develop the tumors. Each tumor fragment contained about 1-1.5×10^6 cells. The animals were kept in macrolon cages on ventilated rack at 22-24° C. (50-60% humidity) with lighting regimen of 12/12 h light/dark. The animals had free access to tap water and were fed with sterilized standard diet (Charles River VRF1, Germany) ad libitum. The animals were taken care of according to the “Guiding Principle for the care and use of Animals” based upon the Helsinki declaration and they were approved by the local ethical committee.
(§2) In case of both tumor models the tumor size was usually in the range of 0.2 to 0.5-g when treatments started 7-11 days after tumor implantation; the mice were selected so that in the same treatment group the difference in tumor size was no greater than 0.1 gram. In some experiments, the test proteins were suspended in physiological saline and injected in 50-μl volume subcutaneously in the vicinity of tumor (within 1-cm of tumor margin). In other experiments, the test proteins were dispersed in Vaselinum cholesteratum and used topically; 150-mg cream was applied on the tumor and the vicinity of tumor area (with about 0.5-cm of the tumor margin). The tumor volume was determined by using calipers; this technique is well known to one having ordinary skill in the art. Tumor volume was calculated according to the generally accepted formula: V=a^2×b×7r/6, where “a” and “b” mean the shortest and longest diameter, respectively, of the measured tumor.
Experiment 1. The mouse MXT mammary tumor was developed as described in Example 3. In the first group, animals remained untreated during the whole observation period. In the second group, starting on the 7th day after tumor implantation, mice were intraperitoneally (i.p.) administered 3-mg per 1-kg total weight of cisplatin 7-times every second day. In the third group, starting on the 7th day after tumor implantation, mice were simultaneously administered 3-mg per 1-kg of cisplatin i.p. and 16-mg per 1-kg of purified PALP s.c. In the fourth group, starting on the 7th day after tumor implantation, mice were simultaneously administered 3-mg per 1-kg of cisplatin i.p. and 60-mg per 1-kg of commercial PALP s.c. In the fifth group, starting on the 7th day after tumor implantation, mice were simultaneously administered 3-mg per 1-kg of cisplatin i.p. and 14-mg per 1-kg of commercial TF (T 3309 in the Sigma catalog) s.c. Each treatment was performed 7-times on every second day. Each group included 7 animals. The mean values for total weight, tumor weight and body weight (the difference between total and tumor weight) are shown in TABLE 6.

[2] = tested on: MXT mouse mammary tumor; test: Cisplatin-treated MXT mouse mammary tumor model, CCDTHT (Example 10); format: in vivo; conditions: every second day from day 7: cisplatin 3-mg/kg i.p., CCDTHT 4.6-mg/kg s.c., highly purified PALP 14-mg/kg s.c.
Source text: as §1, §2
The mouse MXT mammary tumor was developed as described in Example 3. In the first group, animals remained untreated during the whole observation period. In the second group, starting on the 7th day after tumor implantation, mice were administered 3-mg per 1-kg of cisplatin i.p. 9-times every second day. In the third group, starting on the 7th day after tumor implantation, mice were simultaneously administered 3-mg per 1-kg of cisplatin i.p. and 4.6-mg per 1-kg of CCDTHT s.c. In the fourth group, starting on the 7th day after tumor implantation, mice were simultaneously administered 3-mg per 1-kg of cisplatin i.p. as well as 4.6-mg per 1-kg of CCDTHT s.c. and 14-mg per 1-kg of highly purified PALP s.c. Each treatment was performed 9-times on every second day. Each group included 7 animals. The mean values for total weight, tumor weight and body weight (the difference between total and tumor weight) are shown in TABLE 8.

[3] = day 7 after tumor transplantation
[4] = day 11 after tumor transplantation
[5] = day 14 after tumor transplantation
[6] = day 16 after tumor transplantation
[7] = day 18 after tumor transplantation
[8] = day 21 after tumor transplantation

## N.N.[Cl][Pt][Cl] [Cisplatin, cisplatin]
[1]; [3]
  Body weight (total weight minus tumor weight): 22.45 g
  Total weight: 22.70 g
  Tumor weight: 0.25 g
[1]; [4]
  Body weight (total weight minus tumor weight): 22.10 g
  Total weight: 23.10 g
  Tumor weight: 1.00 g
[1]; [5]
  Body weight (total weight minus tumor weight): 19.50 g
  Total weight: 21.70 g
  Tumor weight: 2.20 g
[1]; [6]
  Body weight (total weight minus tumor weight): 16.90 g
  Total weight: 20.10 g
  Tumor weight: 3.20 g
[1]; [7]
  Body weight (total weight minus tumor weight): 16.30 g
  Total weight: 20.10 g
  Tumor weight: 3.80 g
[1]; [8]
  Body weight (total weight minus tumor weight): 15.10 g
  Total weight: 19.20 g
  Tumor weight: 4.10 g
[1]; from day 11 to day 23, cisplatin 3-mg/kg i.p. every second day
  Decrease in body weight: ~33%
[2]; day 7 after transplantation
  Body weight (total weight minus tumor weight): 21.95 g
  Total weight: 22.20 g
  Tumor weight: 0.25 g
[2]; day 9 after transplantation
  Body weight (total weight minus tumor weight): 22.45 g
  Total weight: 23.00 g
  Tumor weight: 0.55 g
[2]; day 11 after transplantation
  Body weight (total weight minus tumor weight): 21.75 g
  Total weight: 23.10 g
  Tumor weight: 1.35 g
[2]; day 15 after transplantation
  Body weight (total weight minus tumor weight): 20.25 g
  Total weight: 22.90 g
  Tumor weight: 2.65 g
[2]; day 17 after transplantation
  Body weight (total weight minus tumor weight): 17.85 g
  Total weight: 21.60 g
  Tumor weight: 3.75 g
[2]; day 21 after transplantation
  Body weight (total weight minus tumor weight): 15.95 g
  Total weight: 20.60 g
  Tumor weight: 4.65 g
